Experimental data published in ChEMBL document CHEMBL4251572, “Novel aminopyrimidinyl benzimidazoles as potentially antimicrobial agents: Design, synthesis and biological evaluation” (Eur J Med Chem, 2018).
Converted amounts (≈) assume the structure as drawn.

Legend:
Staphylococcus aureus [1] = assay: Antibacterial activity against Staphylococcus aureus ATCC 25923 after 24 hrs by micro broth dilution assay; type: functional; details: ATCC 25923, 24 h
Staphylococcus aureus [2] = assay: Antibacterial activity against methicillin-resistant Staphylococcus aureus N315 after 24 hrs by micro broth dilution assay; type: functional; details: N315, 24 h
Bacillus subtilis = assay: Antibacterial activity against Bacillus subtilis after 24 hrs by micro broth dilution assay; type: functional
Micrococcus luteus = assay: Antibacterial activity against Micrococcus luteus ATCC4698 after 24 hrs by micro broth dilution assay; type: functional; details: ATCC4698, 24 h
Bacillus = assay: Antibacterial activity against Bacillus proteus ATCC 13315 after 24 hrs by micro broth dilution assay; type: functional; details: ATCC 13315, 24 h
Escherichia coli [3] = assay: Antibacterial activity against Escherichia coli DH52 after 24 hrs by micro broth dilution assay; type: functional; details: DH52, 24 h
Pseudomonas aeruginosa = assay: Antibacterial activity against Pseudomonas aeruginosa after 24 hrs by micro broth dilution assay; type: functional
Salmonella typhi = assay: Antibacterial activity against Bacillus typhi after 24 hrs by micro broth dilution assay; type: functional, Salmonella enterica subsp. enterica serovar Typhi; details: Salmonella enterica
Escherichia coli [4] = assay: Antibacterial activity against Escherichia coli JM109 after 24 hrs by micro broth dilution assay; type: functional; details: JM109, 24 h
Shigella dysenteriae = assay: Antibacterial activity against Shigella dysenteriae after 24 hrs by micro broth dilution assay; type: functional
Candida albicans = assay: Antifungal against Candida albicans ATCC 76615 after 24 hrs by two fold serial dilution method; type: functional; details: ATCC 76615, 24 h
Pichia norvegensis = assay: Antifungal against Candida mycoderma after 24 hrs by two fold serial dilution method; type: functional
Cyberlindnera jadinii = assay: Antifungal against Candida utilis after 24 hrs by two fold serial dilution method; type: functional; details: Williopsis jadinii
Saccharomyces cerevisiae = assay: Antifungal against Saccharomyces cerevisiae after 24 hrs by two fold serial dilution method; type: functional
Aspergillus flavus = assay: Antifungal against Aspergillus flavus after 24 hrs by two fold serial dilution method; type: functional

Row | SMILES | MIC (Staphylococcus aureus [1]) [µg/mL] | MIC (Staphylococcus aureus [2]) [µg/mL] | MIC (Bacillus subtilis) [µg/mL] | MIC (Micrococcus luteus) [µg/mL] | MIC (Bacillus) [µg/mL] | MIC (Escherichia coli [3]) [µg/mL] | MIC (Pseudomonas aeruginosa) [µg/mL] | MIC (Salmonella typhi) [µg/mL] | MIC (Escherichia coli [4]) [µg/mL] | MIC (Shigella dysenteriae) [µg/mL] | MIC (Candida albicans) [µg/mL] | MIC (Pichia norvegensis) [µg/mL] | MIC (Cyberlindnera jadinii) [µg/mL] | MIC (Saccharomyces cerevisiae) [µg/mL] | MIC (Aspergillus flavus) [µg/mL]
1 | CCCCCCCCn1c(-c2cc(-c3ccc(F)cc3)nc(N)n2)nc2ccccc21 | 256 (≈ 613 µM) | 256 (≈ 613 µM) | 256 (≈ 613 µM) | 32 (≈ 76.6 µM) | 512 (≈ 1230 µM) | 512 (≈ 1230 µM) | 512 (≈ 1230 µM) | 512 (≈ 1230 µM) | 256 (≈ 613 µM) | 512 (≈ 1230 µM) | 256 (≈ 613 µM) | 64 (≈ 153 µM) | 8 (≈ 19.2 µM) | 16 (≈ 38.3 µM) | 128 (≈ 307 µM)
2 | CCCCCCn1c(C(=O)/C=C/c2ccc(Cl)cc2)nc2ccccc21 | 512 (≈ 1400 µM) | 512 (≈ 1400 µM) | 256 (≈ 698 µM) | 32 (≈ 87.2 µM) | 512 (≈ 1400 µM) | 16 (≈ 43.6 µM) | 512 (≈ 1400 µM) | 128 (≈ 349 µM) | 512 (≈ 1400 µM) | 512 (≈ 1400 µM) | 512 (≈ 1400 µM) | 128 (≈ 349 µM) | 512 (≈ 1400 µM) | 8 (≈ 21.8 µM) | 128 (≈ 349 µM)
3 | CCCCCCn1c(C(=O)/C=C/c2ccc(F)cc2)nc2ccccc21 | 512 (≈ 1460 µM) | 512 (≈ 1460 µM) | 256 (≈ 731 µM) | 16 (≈ 45.7 µM) | 64 (≈ 183 µM) | 32 (≈ 91.3 µM) | 512 (≈ 1460 µM) | 512 (≈ 1460 µM) | 512 (≈ 1460 µM) | 256 (≈ 731 µM) | 256 (≈ 731 µM) | 512 (≈ 1460 µM) | 512 (≈ 1460 µM) | 512 (≈ 1460 µM) | 16 (≈ 45.7 µM)
4 | CCCCCCCn1c(C(=O)/C=C/c2ccc(C)cc2)nc2ccccc21 | 4 (≈ 11.1 µM) | 8 (≈ 22.2 µM) | 512 (≈ 1420 µM) | 512 (≈ 1420 µM) | 512 (≈ 1420 µM) | 512 (≈ 1420 µM) | 512 (≈ 1420 µM) | 512 (≈ 1420 µM) | 512 (≈ 1420 µM) | 512 (≈ 1420 µM) | 16 (≈ 44.4 µM) | 512 (≈ 1420 µM) | 512 (≈ 1420 µM) | 512 (≈ 1420 µM) | 512 (≈ 1420 µM)
5 | O=C(/C=C/c1ccc(Cl)cc1Cl)c1nc2ccccc2[nH]1 | 128 (≈ 404 µM) | 256 (≈ 807 µM) | 64 (≈ 202 µM) | 512 (≈ 1610 µM) | 512 (≈ 1610 µM) | 512 (≈ 1610 µM) | 512 (≈ 1610 µM) | 512 (≈ 1610 µM) | 128 (≈ 404 µM) | 256 (≈ 807 µM) | 256 (≈ 807 µM) | 512 (≈ 1610 µM) | 64 (≈ 202 µM) | 16 (≈ 50.4 µM) | 512 (≈ 1610 µM)
6 | Cc1ccc(/C=C/C(=O)c2nc3ccccc3[nH]2)cc1 | 8 (≈ 30.5 µM) | 8 (≈ 30.5 µM) | 16 (≈ 61 µM) | 16 (≈ 61 µM) | 4 (≈ 15.2 µM) | 8 (≈ 30.5 µM) | 4 (≈ 15.2 µM) | 2 (≈ 7.62 µM) | 4 (≈ 15.2 µM) | 16 (≈ 61 µM) | 4 (≈ 15.2 µM) | 32 (≈ 122 µM) | 16 (≈ 61 µM) | 8 (≈ 30.5 µM) | 16 (≈ 61 µM)
7 | CCCCCCCn1c(C(=O)/C=C/c2ccc(Cl)cc2Cl)nc2ccccc21 | 128 (≈ 308 µM) | 512 (≈ 1230 µM) | 512 (≈ 1230 µM) | 512 (≈ 1230 µM) | 512 (≈ 1230 µM) | 512 (≈ 1230 µM) | 512 (≈ 1230 µM) | 512 (≈ 1230 µM) | 512 (≈ 1230 µM) | 256 (≈ 616 µM) | 512 (≈ 1230 µM) | 512 (≈ 1230 µM) | 512 (≈ 1230 µM) | 512 (≈ 1230 µM) | 512 (≈ 1230 µM)
8 | CCCCn1c(C(=O)/C=C/c2ccc(Cl)cc2)nc2ccccc21 | 64 (≈ 189 µM) | 8 (≈ 23.6 µM) | 512 (≈ 1510 µM) | 512 (≈ 1510 µM) | 128 (≈ 378 µM) | 512 (≈ 1510 µM) | 512 (≈ 1510 µM) | 512 (≈ 1510 µM) | 256 (≈ 756 µM) | 32 (≈ 94.4 µM) | 256 (≈ 756 µM) | 256 (≈ 756 µM) | 512 (≈ 1510 µM) | 16 (≈ 47.2 µM) | 512 (≈ 1510 µM)
9 | CCCCCCCCn1c(-c2cc(-c3ccc(Cl)cc3Cl)nc(N)n2)nc2ccccc21 | 256 (≈ 547 µM) | 256 (≈ 547 µM) | 512 (≈ 1090 µM) | 32 (≈ 68.3 µM) | 4 (≈ 8.54 µM) | 512 (≈ 1090 µM) | 512 (≈ 1090 µM) | 512 (≈ 1090 µM) | 512 (≈ 1090 µM) | 512 (≈ 1090 µM) | 512 (≈ 1090 µM) | 512 (≈ 1090 µM) | 8 (≈ 17.1 µM) | 16 (≈ 34.2 µM) | 512 (≈ 1090 µM)
10 | CCCCCCCCn1c(C(=O)/C=C/c2ccc(F)cc2)nc2ccccc21 | 512 (≈ 1350 µM) | 512 (≈ 1350 µM) | 16 (≈ 42.3 µM) | 32 (≈ 84.5 µM) | 512 (≈ 1350 µM) | 8 (≈ 21.1 µM) | 512 (≈ 1350 µM) | 128 (≈ 338 µM) | 512 (≈ 1350 µM) | 512 (≈ 1350 µM) | 512 (≈ 1350 µM) | 512 (≈ 1350 µM) | 64 (≈ 169 µM) | 512 (≈ 1350 µM) | 256 (≈ 676 µM)
11 | CCCCCCCCn1c(C(=O)/C=C/c2ccc(C)cc2)nc2ccccc21 | 512 (≈ 1370 µM) | 512 (≈ 1370 µM) | 512 (≈ 1370 µM) | 512 (≈ 1370 µM) | 512 (≈ 1370 µM) | 512 (≈ 1370 µM) | 512 (≈ 1370 µM) | 512 (≈ 1370 µM) | 512 (≈ 1370 µM) | 512 (≈ 1370 µM) | 256 (≈ 684 µM) | 512 (≈ 1370 µM) | 256 (≈ 684 µM) | 512 (≈ 1370 µM) | 512 (≈ 1370 µM)
